Patent US10376486B2, “Compositions and methods for reactivating latent viral infections” (priority 2014, dated 2019)

Legend:
[1] = tested on: latent HIV in primary CD4+ T cells; experiment: Ex vivo HIV transcription in primary CD4+ T cells from HIV infected individuals on suppressive ART (RT-qPCR); type: cell-based
Procedure: Primary CD4+ T cells were isolated from peripheral blood of HIV infected individuals on suppressive ART and treated with 6 or 12 nM PEP005, 200 ng/ml PMA plus 2 μM lonomycin, or DMSO for 6 hours. Induction of HIV transcription was measured using RT-qPCR for the 5′ LTR region or Poly A region of the virus. **, p<0.01.
Primary CD4+ T cells were isolated from the peripheral blood of HIV positive individuals on suppressive ART and treated with 12 nM PEP005 alone or in combination with JQ1 for 6 hours, and HIV transcription was quantified using RT-qPCR for the 5′ LTR region or Poly A region of the virus.
Primary CD4+ T cells were isolated from the peripheral blood of HIV positive individuals on suppressive ART and treated with 12 nM PEP005 alone or in combination with JQ1 for 48 hours, and HIV transcription was quantified using RT-qPCR for the 5′ LTR region or Poly A region of the virus.
Primary CD4+ T cells were isolated from the peripheral blood of HIV positive individuals on suppressive ART and treated with 12 nM PEP005 alone or in combination with JQ1 for 6 or 48 hours, and HIV transcription was quantified using RT-qPCR for the 5′ LTR region or Poly A region of the virus.
Peripheral blood samples were collected from 13 HIV-infected individuals receiving suppressive ART for >3 years except for one patient. All subjects had suppression of plasma viremia for more than 6 months (Average 5.84 years). At the time of the study enrollment, CD4+ T cell counts in peripheral blood samples ranged from 264 to 1100 cells/mm^3 (Average 639 cell/mm^3) and plasma viral loads were <20 copies per ml as measured by qPCR (Table 1). Isolation of the peripheral blood mononuclear cells (PBMC) and purification of CD4+ T cells using the EasySep kit ([sequence] Technologies Inc. Vancouver, BC, Canada) were performed as previously described [24]. The purified CD4+ T cells were plated at a density of 1×10^6 cells/ml and treated with 200 ng/ml PMA plus 2 μM Ionomycin, 6-12 nM PEP005, 2 μM of JQ1, or 12 nM PEP005 plus 2 μM JQ1 for 6 hrs or 48 hrs and the cells were collected for RNA purification.

[2] = tested on: latent HIV in J-Lat A1 cells; experiment: HIV latency reactivation in J-Lat A1 cells (GFP expression by flow cytometry); type: cell-based
Procedure: (§1) FIG. 1: PEP005 induces reactivation of HIV latency in vitro. J-Lat A1 cells were exposed to different concentrations of PEP005 and virus reactivation was measured by GFP expression using flow cytometry. Cell viability was determined by Live/Dead dye staining. (A) Chemical Structure of PEP005. […] (D) PEP005 potently reactivates latent HIV in cell lines compared with other LRAs. J-Lat A1 cells were treated with 10 nM PEP005, 500 nM SAHA, 2 μM JQ1, 2 μM GSK343, 10 ng/ml TNF, 2 μM Prostratin, or 5 ng/ml PMA for 24 hours and the percentage of GFP expression was evaluated using flow cytometry. *, p<0.05; **, p<0.01.
FIG. 2: PEP005 synergizes with other latency reversing agents in reactivating latent HIV. (A) J-Lat A1 cells were treated with 5 ng/ml PMA, 6 nM PEP005, 500 nM SAHA, 2 μM JQ1, 2 μM GSK343, or 10 μM Prostratin alone or in combination with 6 nM PEP005 for 24 hours and the percentage of GFP expressing cells was determined using flow cytometry. **, p<0.01; *, p<0.05 compared with control treatment; **, p<0.01; *, p<0.05 compared with PEP005 treatment alone. (B) The U1 cells were treated with 5 ng/ml PMA, 6 nM PEP005, 500 nM SAHA, 2 μM JQ1, or 2 μM GSK343, alone or in combination with 6 nM PEP005 for 24 hours and the HIV transcription was evaluated using RT-qPCR. Numbers indicate fold-increase over the control. **, p<0.01; *, p<0.05 compared with control treatment; **, p<0.01; *, p<0.05 compared with PEP005 treatment alone. […] The Bliss independence model was utilized for calculation of synergy for LRA combinations. Dotted horizontal line signifies pure additive effect (Δfaxy=0). Synergy is defined as Δfaxy>0 while Δfaxy<0 indicates antagonism. Statistical significance was determined using a one tailed ratio t-test comparing predicted and observed drug combination effects. *p<0.05; **p<0.01.
J-Lat A1 cells (harboring a single copy of latent HIV LTR and one copy of green fluorescent protein gene under the HIV LTR control) or U1 cells (harboring two latent HIV genomes with defective Tat gene) were cultured in RPMI1640 medium with 10% fetal bovine serum (FBS) and 1% Pen/strep in a 37° C. incubator containing 5% CO2 [24,31]. Both of the cell lines were obtained from NIH AIDS Reagent Program. For reactivation of HIV LTR, cells were treated with PMA (Sigma), JQ1 (Biovision), Prostatin (Sigma), SAHA (Santa Cruz), TNF-α (BD), GSK343 (Sigma), or PEP005 (Tocris Bioscience) for 24 h. HIV reactivation was quantified by GFP expression using flow cytometry and the data were analyzed using FlowJo Software for J-Lat A1 cells, or by quantitative RT-PCR (RT-qPCR) for J-Lat A1 and U1 cells. Cell viability was evaluated using Live/Dead dye (Life Technologies) by flow cytometry. So far, there is not a single in vitro cell culture model available that captures all the features of HIV latency. However, PKC agonists seem to reactivate latent HIV in all the cell culture models of viral latency. Similar to other J-Lat cell lines, the J-Lat A1 clone has been widely used by researchers for HIV latency studies. The T-cell-derived J-Lat A1 cells harbor one copy of a construct containing a Tat and a green fluorescent protein (GFP) gene framed by the 5′ and 3′ HIV LTR [32]. The J-Lat A1 cells also contain the TAR loop located within the R region of HIV LTR (nt +1 to +60), which provides an opportunity for Tat-TAR interactions for the modulation of transcription and transcriptional elongation. […]

latent HIV in U1 cells = experiment: HIV transcription in U1 cells (RT-qPCR); type: cell-based; settings: 6 nM PEP005, 2 μM JQ1, 24 h
Procedure: FIG. 2: PEP005 synergizes with other latency reversing agents in reactivating latent HIV. (A) J-Lat A1 cells were treated with 5 ng/ml PMA, 6 nM PEP005, 500 nM SAHA, 2 μM JQ1, 2 μM GSK343, or 10 μM Prostratin alone or in combination with 6 nM PEP005 for 24 hours and the percentage of GFP expressing cells was determined using flow cytometry. **, p<0.01; *, p<0.05 compared with control treatment; **, p<0.01; *, p<0.05 compared with PEP005 treatment alone. (B) The U1 cells were treated with 5 ng/ml PMA, 6 nM PEP005, 500 nM SAHA, 2 μM JQ1, or 2 μM GSK343, alone or in combination with 6 nM PEP005 for 24 hours and the HIV transcription was evaluated using RT-qPCR. […] Statistical significance was determined using a one tailed ratio t-test comparing predicted and observed drug combination effects. *p<0.05; **p<0.01.
(§2) J-Lat A1 cells (harboring a single copy of latent HIV LTR and one copy of green fluorescent protein gene under the HIV LTR control) or U1 cells (harboring two latent HIV genomes with defective Tat gene) were cultured in RPMI1640 medium with 10% fetal bovine serum (FBS) and 1% Pen/strep in a 37° C. incubator containing 5% CO2 [24,31]. […] HIV reactivation was quantified by GFP expression using flow cytometry and the data were analyzed using FlowJo Software for J-Lat A1 cells, or by quantitative RT-PCR (RT-qPCR) for J-Lat A1 and U1 cells. […]

J-Lat A1 cells = experiment: Cell viability of J-Lat A1 cells by Live/Dead dye staining; type: cell-based; settings: 2-40 nM PEP005
Procedure: as §1
as §2, with “[24,31]. Both of the cell lines were obtained from NIH AIDS Reagent Program.” for “[24,31].”, “cells. Cell viability was evaluated using Live/Dead dye (Life Technologies) by flow cytometry.” for “cells.”

[3] = tested on: PKCδ/θ-IκBα/ε-NF-κB signaling; experiment: Western blot of PKC isoforms, IκB isoforms and NF-κB/p65; type: cell-based; settings: J-Lat A1 cells
Procedure: Western blot analysis was performed to detect the expression of PKC isoforms, IκB isoforms, as well as expression of NF-κB/p65.
Whole cell protein extracts were prepared with RIPA buffer containing proteinase inhibitors and phosphatase inhibitors (Sigma). Expression of the isoforms of PKC protein or NF-κB/p65 was evaluated using the PKC Isoform Sampler Antibody Kit (Cell Signaling, 9960S) or anti-NF-κB/p65 (Abcam). The level of phosphorylation of PKC was determined using anti-Phospho-Ser664-PKCδ, anti-Phospho-Ser643/676 PKCδ or anti-Phospho-T538-PKCθ (Millipore), and the level of phosphorylation of IκB was determined using p-IκBα(Ser32), p-IκBβ (Thr19/Ser23) or p-IκBε(Ser18/22) antibodies (Millipore).

[4] = PBMCs of healthy HIV-negative donors, 12 nM PEP005, 24 or 72 hours
[5] = purified primary CD4+ T cells, 12 nM PEP005, 24 hrs

`C/C=C(/C)C(=O)O[C@H]1C(C)=C[C@]23C(=O)[C@@H](C=C(CO)[C@@H](O)[C@]12O)[C@H]1[C@@H](C[C@H]3C)C1(C)C` [PEP005, (1aR,2S,5R,5aS,6S,8aS,9R,10aR)-5,5a-Dihydroxy-4-(hydroxymethyl)-1,1,7,9-tetramethyl-11-oxo-1a,2,5,5a,6,9,10,10a-octahydro-1H-2,8a-methanocyclopenta[a]cyclpropa[e][10]annulen-6-yl (2Z)-2-methylbut-2-enoate] was tested, and the “individuals with increase in HIV transcription, 5′ LTR region” value ([1]; 6 nM PEP005, 6 hrs) was 2 out of 7, the “donors with 2 or >2 fold increase in full-length HIV transcripts, poly A region” value ([1]; 12 nM PEP005) was 5 of the 6 and the “HIV RNA copy number in 1 μg of total RNA from CD4+ T cells” value ([1]; 12 nM PEP005, 6 hr, vs control treatment) was “significantly induced latent HIV reactivation”. For the same compound, the “individuals with HIV transcription, 5′ LTR region” value ([1]; 12 nM PEP005, 6 hrs) was 5 out of 7, the “donors with 2 fold or >2 fold increase in full-length HIV transcripts, poly A region” value ([1]; After 6 hours of PEP005 treatment) was 5 of the 7 and the “expression of CD38 (24 hr) and HLA-DR by flow cytometry” value (primary CD4+ T cells; [4]) was “no significant change”. For the same compound, the “expression of CD69 by flow cytometry” value (primary CD4+ T cells; [4]) was “increase in expression of CD69”, the “expression of CD38, CD25, or HLA-DR by RT-qPCR” value (primary CD4+ T cells; [5]) was “did not cause any significant change” and the “expression of CD69 by RT-qPCR” value (primary CD4+ T cells; [5]) was “increased expression of CD69”. The “concentration at which effect on HIV expression was evident” value [2] was 2 nM, the “HIV reactivation compared to other compounds known to reactivate HIV” value ([2]; 10 nM PEP005 vs 500 nM SAHA, 2 μM JQ1, 2 μM GSK343, 2 μM Prostratin, 5 ng/ml PMA, 24 h) was “more potent than SAHA” and the “increase in the reactivation of HIV latency compared to untreated controls” value ([2]; 20 nM PEP005) was 7 fold. The “induction of HIV expression, agent alone” value ([2]; GFP, 24 h, PEP005 2-40 nM, GSK343 2 μM) was “dose-dependent manner”, the “increase in latent HIV reactivation / HIV transcription compared to controls” value (latent HIV in U1 cells) was “about 25 fold” and the cellular toxicity (J-Lat A1 cells) was “absence of any apparent cellular toxicity”. For the same compound, the “expression of NF-κB/p65” value ([3]; 12 nM PEP005) was “did not change”, the “phosphorylation of IκB isoforms” value ([3]; 12 nM PEP005) was “induced phosphorylation of IκBα and IκBε, but not of IκBβ” and the “expression of PKC proteins” value ([3]; 12 nM PEP005, 1 hr) was “modest up-regulation of PKCδ”. For the same compound, the “phosphorylation of Ser643/Ser676 in PKCδ/θ” value ([3]; 12 nM PEP005, as early as 30 minutes post treatment) was “greater than a two-fold increase”.
